Experimental data taken from patent US10260043B2, “Human extensively self-renewing erythroblasts (ESRE)” (UNIVERSITY OF ROCHESTER, priority 2013, dated 2019).

System: murine ESREs
Assay: murine ESRE self-renewal supported by glucocorticoid
Type: cell-based, mouse
Settings: as effectively as 10^−6M dexamethasone; preliminary studies
Source text: Other reagents necessary for improving the efficiency with which self-renewing cultures can be derived from human ESCs can be tested. This includes alternate steroids, such as fluticasone proprionate, an extremely potent glucocorticoid agent; our preliminary studies of murine ESREs indicate that doses of fluticasone as low as 10^−9M support erythroblast self-renewal as effectively as 10^−6M dexamethasone. Various lipid additives, including Excyte (Millipore) and Human LDL (Stem Cell Technology) can also be test for to optimizing support human erythroblast self-renewal.

fluticasone proprionate
dose that supports erythroblast self-renewal: ≤ 10^−9 M
